Literature values in US20120035270A1, “PAEDIATRIC SOLUTIONS COMPRISING A BETA-BLOCKER” (priority 2009, published 2012).

Key:
[1] = test system: Infantile capillary hemangiomas (IH); conditions: severe hemangiomas of infancy, Léauté-Labrèze et al. 2008
[2] = test system: B. Subtilis, S. Aureus and E. Coli; conditions: Takahashi et al. 1983
[3] = test system: S. Aureus; conditions: growth of S. Aureus
[4] = test system: B. Subtilis; conditions: growth of B. Subtilis
[5] = test system: E. Coli; conditions: growth of E. Coli

CC(C)NCC(O)COc1cccc2ccccc12 (stereo not drawn) [propranolol, 1-(isopropylamino)-3-(naphthalen-1-yloxy)propan-2-ol]
control and treatment of the growth of IH [1]: could efficiently be used to control and even to treat the growth of IH

CC(=O)c1cc2cccc(OCC(O)CNC(C)C)c2o1 (stereo not drawn) [befunolol]
antimicrobial effects [2]: do not have these antimicrobial effects

Cc1ccc(Cl)c(OCC(O)CNC(C)(C)C)c1 (stereo not drawn) [bupranolol]
minimum inhibitory concentration [3]: 0.05%
minimum inhibitory concentration [4]: 0.1%
minimum inhibitory concentration [5]: 0.05%

CC(C)(C)NC[C@H](O)COc1nsnc1N1CCOCC1 [Timolol]
antimicrobial effects [2]: do not have these antimicrobial effects
